Results published in PMC8119466, “A screen of FDA-approved drugs identifies inhibitors of protein tyrosine phosphatase 4A3 (PTP4A3 or PRL-3)” (Scientific Reports, 2021).
Structures can show the parent of a compound that is named as a salt. Where two headings read alike, the source gives them in different places.

Columns and labels:
Assay type in all cases: biochemical
recombinant PRL-1 = molecular target: T1, recombinant PRL-1 (Homo sapiens, UniProt Q93096); experiment: In vitro phosphatase assay (DiFMUP hydrolysis), PRL-1
T1 construct: 6xHis (N, cleaved yes); made in house; host or cells: E. coli One Shot BL21 Star
T1 sequence (Q93096 1-173): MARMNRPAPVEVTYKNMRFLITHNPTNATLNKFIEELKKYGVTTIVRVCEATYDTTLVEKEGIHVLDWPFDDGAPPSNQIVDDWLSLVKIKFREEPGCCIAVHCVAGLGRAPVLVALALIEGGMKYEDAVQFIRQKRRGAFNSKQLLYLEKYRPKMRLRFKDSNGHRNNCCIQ

recombinant PRL-2 = molecular target: T2, recombinant PRL-2 (Homo sapiens, UniProt Q12974); experiment: In vitro phosphatase assay (DiFMUP hydrolysis), PRL-2;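 further: PRL-2 activity read as DiFMUP hydrolysis after 20 min at room temperature with drug, enzyme first pre-reduced at 4 °C for 20 min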
T2 construct: 6xHis (N, cleaved yes); made in house; host or cells: E. coli One Shot BL21 Star
T2 sequence (Q12974 1-167): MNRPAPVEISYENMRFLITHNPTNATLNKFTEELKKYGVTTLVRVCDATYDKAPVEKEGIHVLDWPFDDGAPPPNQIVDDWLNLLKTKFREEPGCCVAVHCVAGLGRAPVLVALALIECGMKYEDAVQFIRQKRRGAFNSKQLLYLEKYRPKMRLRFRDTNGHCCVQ

recombinant PRL-3 = molecular target: T3, recombinant PRL-3 (Homo sapiens, UniProt O75365); experiment: In vitro phosphatase assay (DiFMUP hydrolysis), PRL-3
T3 construct: 6xHis (N, cleaved yes); made in house; host or cells: E. coli One Shot BL21 Star
T3 sequence (O75365 whole entry): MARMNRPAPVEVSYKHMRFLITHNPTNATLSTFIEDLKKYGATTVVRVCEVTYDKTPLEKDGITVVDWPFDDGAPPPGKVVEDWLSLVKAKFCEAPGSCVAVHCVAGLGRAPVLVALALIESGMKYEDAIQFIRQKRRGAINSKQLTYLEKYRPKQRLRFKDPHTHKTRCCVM

[1] = FDA-approved drug screen, compared to DMSO

Row | Structure (SMILES) | % Phosphatase Activity (compared to DMSO) PRL-1 (recombinant PRL-1; [1]) [%] | % Phosphatase Activity (compared to DMSO) PRL-2 (recombinant PRL-2; [1]) [%] | % Phosphatase Activity (compared to DMSO) PRL-3 (recombinant PRL-3; [1]) [%] | other results
1 | Cc1nc(NC(=O)N2CCC[C@H]2C(N)=O)sc1-c1ccnc(C(C)(C)C(F)(F)F)c1 [BYL719] | 89 | 96 | 90 | 
2 | Cc1ccc(NC(=O)c2ccc(CN3CC[C@H](N(C)C)C3)c(C(F)(F)F)c2)cc1Nc1nccc(-c2cncnc2)n1 [Bafetinib (INNO-406)] | 97 | 105 | 76 | 
3 | CNC1CCCN(c2c(F)cc3c(=O)c(C(=O)O)cn(C4CC4)c3c2OC)C1 (stereo not drawn) [Balofloxacin] | 282 | 411 | 123 | 
4 | CCN(CCO)CCCOc1ccc2c(Nc3cc(CC(=O)Nc4cccc(F)c4)[nH]n3)ncnc2c1 [Barasertib (AZD1152-HQPA)] | 91 | 95 | 76 | 
5 | CNC(=O)[C@H](Cc1ccccc1)NC(=O)[C@H](CC(C)C)[C@H](CSc1cccs1)C(=O)NO [Batimastat (BB-94)] | 88 | 79 | 89 | 
6 | CCC(=O)OCC(=O)[C@@]1(OC(=O)CC)[C@@H](C)C[C@H]2[C@@H]3CCC4=CC(=O)C=C[C@]4(C)[C@@]3(Cl)[C@@H](O)C[C@@]21C [Beclomethasone dipropionate] | 98 | 91 | 90 | 
7 | O=C(/C=C/c1cccc(S(=O)(=O)Nc2ccccc2)c1)NO [Belinostat (PXD101)] | 98 | 104 | 80 | 
8 | CCOC(=O)[C@H](CCc1ccccc1)N[C@H]1CCc2ccccc2N(CC(=O)O)C1=O [Benazepril HCl] | 91 | 80 | 78 | 
9 | Cl.Cn1c(CCCC(=O)O)nc2cc(N(CCCl)CCCl)ccc21 [Bendamustine HCl] | 122 | 128 | 79 | 
10 | NC(CO)C(=O)NNCc1ccc(O)c(O)c1O (stereo not drawn) [Benserazide HCl] | 103 | 99 | 68 | 
11 | CCc1oc2ccccc2c1C(=O)c1cc(Br)c(O)c(Br)c1 [Benzbromarone] | 63 | 56 | 51 | 
12 | CCOC(=O)c1ccc(N)cc1.Cl [Benzocaine hydrochloride] | 100 | 102 | 84 | 
13 | CCOC(=O)c1ccc(N)cc1 [Benzocaine] | 87 | 98 | 84 | 
14 | NS(=O)(=O)c1cc2c(cc1Cl)N=C(CSCc1ccccc1)NS2(=O)=O [Benzthiazide] | 111 | 115 | 99 | 
15 | CN1[C@@H]2CC[C@H]1C[C@@H](OC(c1ccccc1)c1ccccc1)C2 [Benztropine mesylate] | 94 | 106 | 89 | 
16 | CN(C)CCCOc1nn(Cc2ccccc2)c2ccccc12 [Benzydamine HCl] | 100 | 116 | 77 | 
17 | OCc1ccccc1 [Benzyl alcohol] | 94 | 91 | 82 | 
18 | O=C(OCc1ccccc1)c1ccccc1 [Benzyl benzoate] | 83 | 75 | 77 | 
19 | C[N+](C)(CCOc1ccccc1)Cc1ccccc1.O=C([O-])c1cc2ccccc2cc1O [Bephenium Hydroxynaphthoate] | 108 | 103 | 92 | 

Row | Structure (SMILES) | % Phosphatase Activity (compared to DMSO) PRL-1 (recombinant PRL-1; [1]) [%] | % Phosphatase Activity (compared to DMSO) PRL-2 (recombinant PRL-2; [1]) [%] | % Phosphatase Activity (compared to DMSO) PRL-3 (recombinant PRL-3; [1]) [%] | other results
20 | CNCCc1ccccn1.Cl.Cl [Betahistine 2HCl] | 93 | 96 | 87 | 
21 | CCC(=O)OCC(=O)[C@@]1(OC(=O)CC)[C@@H](C)C[C@H]2[C@@H]3CCC4=CC(=O)C=C[C@]4(C)[C@@]3(F)[C@@H](O)C[C@@]21C [Betamethasone Dipropionate] | 92 | 83 | 84 | 
22 | CCCCC(=O)O[C@]1(C(=O)CO)[C@@H](C)C[C@H]2[C@@H]3CCC4=CC(=O)C=C[C@]4(C)[C@@]3(F)[C@@H](O)C[C@@]21C [Betamethasone valerate (Betnovate)] | 97 | 83 | 79 | 
23 | C[C@H]1C[C@H]2[C@@H]3CCC4=CC(=O)C=C[C@]4(C)[C@@]3(F)[C@@H](O)C[C@]2(C)[C@@]1(O)C(=O)CO [Betamethasone] | 95 | 88 | 72 | 
24 | O=C(O)CCNC(=O)c1ccccc1 [Betamipron] | 98 | 95 | 75 | 
25 | CC(C)NCC(O)COc1ccc(CCOCC2CC2)cc1.Cl (stereo not drawn) [Betaxolol hydrochloride (Betoptic)] |  |  |  | % Phosphatase Activity (compared to DMSO) PRL-1 (recombinant PRL-1): 84%; % Phosphatase Activity (compared to DMSO) PRL-2 (recombinant PRL-2): 99%; % Phosphatase Activity (compared to DMSO) PRL-3 (recombinant PRL-3): 97%
26 | CC(C)NCC(O)COc1ccc(CCOCC2CC2)cc1 (stereo not drawn) [Betaxolol] |  |  |  | % Phosphatase Activity (compared to DMSO) PRL-1 (recombinant PRL-1): 109%; % Phosphatase Activity (compared to DMSO) PRL-2 (recombinant PRL-2): 124%; % Phosphatase Activity (compared to DMSO) PRL-3 (recombinant PRL-3): 80%
27 | CC(C[N+](C)(C)C)OC(N)=O (stereo not drawn) [Bethanechol chloride] | 104 | 119 | 77 | 
28 | C=C(c1ccc(C(=O)O)cc1)c1cc2c(cc1C)C(C)(C)CCC2(C)C [Bexarotene] | 81 | 89 | 58 | 
29 | CC(C)(Oc1ccc(CCNC(=O)c2ccc(Cl)cc2)cc1)C(=O)O [Bezafibrate] | 123 | 119 | 90 | 
30 | C[C@@H](O)[C@H]1C(=O)N2C(C(=O)[O-])=C(SC3Cn4cnc[n+]4C3)[C@H](C)[C@H]12 (stereo partly drawn) [Biapenem] | 100 | 74 | 93 | 
31 | CC(O)(CS(=O)(=O)c1ccc(F)cc1)C(=O)Nc1ccc(C#N)c(C(F)(F)F)c1 (stereo not drawn) [Bicalutamide] | 118 | 108 | 99 | 
32 | c1ccc(-c2ccc(C(c3ccccc3)n3ccnc3)cc2)cc1 (stereo not drawn) [Bifonazole] | 86 | 108 | 94 | 
33 | O=C(O)CCCC[C@@H]1SC[C@@H]2NC(=O)N[C@@H]21 [Biotin (Vitamin B7)] | 104 | 101 | 86 | 
34 | CC[C@H](NC(=O)[C@H](C)NC)C(=O)N1C[C@@H](O)C[C@H]1Cc1c(-c2[nH]c3cc(F)ccc3c2C[C@@H]2C[C@H](O)CN2C(=O)[C@H](CC)NC(=O)[C@H](C)NC)[nH]c2cc(F)ccc12 [Birinapant] | 138 | 129 | 138 | 
35 | CC(=O)Oc1ccc(C(c2ccc(OC(C)=O)cc2)c2ccccn2)cc1 [Bisacodyl] | 88 | 104 | 66 | 
36 | CC(C)NCC(O)COc1ccc(COCCOC(C)C)cc1 (stereo not drawn) [Bisoprolol fumarate] | 104 | 124 | 89 | 
37 | Oc1c(Cl)cc(Cl)cc1Sc1cc(Cl)cc(Cl)c1O [Bithionol, reference compound] | 52 | 80 | 6 | IC50 (recombinant PRL-1; 2.5 µM protein, DiFMUP at KM, read-out: Calculated IC50, PRL-1 phosphatase activity): 79 ± 25 µM; IC50 (recombinant PRL-2; 2.5 µM protein, DiFMUP at KM, read-out: Calculated IC50, PRL-2 phosphatase activity): 115 ± 34 µM; IC50 (recombinant PRL-3; 2.5 µM protein, DiFMUP at KM, read-out: Calculated IC50, PRL-3 phosphatase activity): 33 ± 2 µM
38 | C[C@H](Oc1ccc(S(C)(=O)=O)cc1C(=O)N1CCN(c2ncc(C(F)(F)F)cc2F)CC1)C(F)(F)F [Bitopertin] | 93 | 73 | 82 | 
